PubChem BioAssay (NCI)
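Dose response: 5 concentrations. Exposure: 48 h. Format: 96-well plates. Endpoint: linear interpolation; highest concentration if not reached. The concentration for 50% growth inhibition is given as GI50. TGI: total growth inhibition.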

Tests used:
Assay in all cases: NCI anticancer screen, dose series, 48 h
OVCAR-3 ovarian = tested on: OVCAR-3 ovarian
A498 renal = tested on: A498 renal
U251 CNS = tested on: U251 CNS
NCI-H460 lung = tested on: NCI-H460 lung
PC-3 prostate = tested on: PC-3 prostate
T-47D breast = tested on: T-47D breast
SNB-19 CNS = tested on: SNB-19 CNS
SF-295 CNS = tested on: SF-295 CNS
SNB-75 CNS = tested on: SNB-75 CNS
RXF 393 renal = tested on: RXF 393 renal
MALME-3M melanoma = tested on: MALME-3M melanoma
HCT-116 colon = tested on: HCT-116 colon
OVCAR-4 ovarian = tested on: OVCAR-4 ovarian
SK-MEL-2 melanoma = tested on: SK-MEL-2 melanoma
UACC-257 melanoma = tested on: UACC-257 melanoma
HCT-15 colon = tested on: HCT-15 colon
MOLT-4 leukemia = tested on: MOLT-4 leukemia
KM12 colon = tested on: KM12 colon
786-0 renal = tested on: 786-0 renal
NCI-H23 lung = tested on: NCI-H23 lung
IGROV1 ovarian = tested on: IGROV1 ovarian
HT29 colon = tested on: HT29 colon
NCI/ADR-RES ovarian = tested on: NCI/ADR-RES ovarian
UO-31 renal = tested on: UO-31 renal
EKVX NSCLC = tested on: EKVX NSCLC
MDA-MB-231 breast = tested on: MDA-MB-231 breast
MDA-MB-435 = tested on: MDA-MB-435
K-562 leukemia = tested on: K-562 leukemia
SF-539 CNS = tested on: SF-539 CNS
COLO 205 colon = tested on: COLO 205 colon
HL-60(TB) leukemia = tested on: HL-60(TB) leukemia
SN12C renal = tested on: SN12C renal
OVCAR-8 ovarian = tested on: OVCAR-8 ovarian
OVCAR-5 ovarian = tested on: OVCAR-5 ovarian
SK-OV-3 ovarian = tested on: SK-OV-3 ovarian
HCC-2998 colon = tested on: HCC-2998 colon
M14 melanoma = tested on: M14 melanoma
NCI-H522 lung = tested on: NCI-H522 lung
HOP-62 NSCLC = tested on: HOP-62 NSCLC
CAKI-1 renal = tested on: CAKI-1 renal
ACHN renal = tested on: ACHN renal
SK-MEL-28 melanoma = tested on: SK-MEL-28 melanoma
A549 NSCLC = tested on: A549 NSCLC
DU-145 prostate = tested on: DU-145 prostate
SF-268 CNS = tested on: SF-268 CNS
HS 578T breast = tested on: HS 578T breast
MCF7 breast = tested on: MCF7 breast
RPMI-8226 leukemia = tested on: RPMI-8226 leukemia
SK-MEL-5 melanoma = tested on: SK-MEL-5 melanoma
HOP-92 NSCLC = tested on: HOP-92 NSCLC
CCRF-CEM leukemia = tested on: CCRF-CEM leukemia
SW-620 colon = tested on: SW-620 colon
NCI-H226 lung = tested on: NCI-H226 lung
UACC-62 melanoma = tested on: UACC-62 melanoma
SR leukemia = tested on: SR leukemia
BT-549 breast = tested on: BT-549 breast
TK-10 renal = tested on: TK-10 renal

COc1cc(/C=C/C(=O)c2cc(OC)c(OC)c(OC)c2)ccc1OCc1ccc(F)cc1
GI50 (OVCAR-3 ovarian): 3.84 µM
TGI (OVCAR-3 ovarian): > 100 µM
GI50 (A498 renal): 48 µM
TGI (A498 renal): > 100 µM
GI50 (U251 CNS): 3.74 µM
TGI (U251 CNS): > 100 µM
GI50 (NCI-H460 lung): 4.56 µM
TGI (NCI-H460 lung): > 100 µM
GI50 (PC-3 prostate): 3.67 µM
TGI (PC-3 prostate): > 100 µM
GI50 (T-47D breast): 3.22 µM
TGI (T-47D breast): > 100 µM
GI50 (SNB-19 CNS): 4 µM
TGI (SNB-19 CNS): > 100 µM
GI50 (SF-295 CNS): 3.65 µM
TGI (SF-295 CNS): > 100 µM
GI50 (SNB-75 CNS): 2.06 µM
TGI (SNB-75 CNS): 7.48 µM
GI50 (RXF 393 renal): 3.4 µM
TGI (RXF 393 renal): 49.8 µM
GI50 (MALME-3M melanoma): 6 µM
TGI (MALME-3M melanoma): > 100 µM
GI50 (HCT-116 colon): 2.85 µM
TGI (HCT-116 colon): > 100 µM
GI50 (OVCAR-4 ovarian): 3.62 µM
TGI (OVCAR-4 ovarian): > 100 µM
GI50 (SK-MEL-2 melanoma): 8.57 µM
TGI (SK-MEL-2 melanoma): 64.4 µM
GI50 (UACC-257 melanoma): 3.82 µM
TGI (UACC-257 melanoma): > 100 µM
GI50 (HCT-15 colon): 2.66 µM
TGI (HCT-15 colon): > 100 µM
GI50 (MOLT-4 leukemia): 3.14 µM
TGI (MOLT-4 leukemia): > 100 µM
GI50 (KM12 colon): 4.95 µM
TGI (KM12 colon): > 100 µM
GI50 (786-0 renal): 7.22 µM
TGI (786-0 renal): > 100 µM
GI50 (NCI-H23 lung): 5.29 µM
TGI (NCI-H23 lung): > 100 µM
GI50 (IGROV1 ovarian): 3.38 µM
TGI (IGROV1 ovarian): > 100 µM
GI50 (HT29 colon): 3.43 µM
TGI (HT29 colon): > 100 µM
GI50 (NCI/ADR-RES ovarian): 4.2 µM
TGI (NCI/ADR-RES ovarian): > 100 µM
GI50 (UO-31 renal): 3.88 µM
TGI (UO-31 renal): > 100 µM
GI50 (EKVX NSCLC): 18.4 µM
TGI (EKVX NSCLC): > 100 µM
GI50 (MDA-MB-231 breast): 2.96 µM
TGI (MDA-MB-231 breast): 24.6 µM
GI50 (MDA-MB-435): 3.6 µM
TGI (MDA-MB-435): > 100 µM
GI50 (K-562 leukemia): 2.94 µM
TGI (K-562 leukemia): > 100 µM
GI50 (SF-539 CNS): 2.12 µM
TGI (SF-539 CNS): 5.13 µM
GI50 (COLO 205 colon): 5.27 µM
TGI (COLO 205 colon): > 100 µM
GI50 (HL-60(TB) leukemia): 2.73 µM
TGI (HL-60(TB) leukemia): > 100 µM
GI50 (SN12C renal): 2.73 µM
TGI (SN12C renal): 15.4 µM
GI50 (OVCAR-8 ovarian): 2.88 µM
TGI (OVCAR-8 ovarian): 16.6 µM
GI50 (OVCAR-5 ovarian): 3.9 µM
TGI (OVCAR-5 ovarian): > 100 µM
GI50 (SK-OV-3 ovarian): 3.61 µM
TGI (SK-OV-3 ovarian): 54.6 µM
GI50 (HCC-2998 colon): 2.94 µM
TGI (HCC-2998 colon): 8.17 µM
GI50 (M14 melanoma): 5.74 µM
TGI (M14 melanoma): > 100 µM
GI50 (NCI-H522 lung): 2.31 µM
TGI (NCI-H522 lung): 15.5 µM
GI50 (HOP-62 NSCLC): 3.64 µM
TGI (HOP-62 NSCLC): 37.6 µM
GI50 (CAKI-1 renal): 4.35 µM
TGI (CAKI-1 renal): > 100 µM
GI50 (ACHN renal): 4.92 µM
TGI (ACHN renal): > 100 µM
GI50 (SK-MEL-28 melanoma): 6.52 µM
TGI (SK-MEL-28 melanoma): > 100 µM
GI50 (A549 NSCLC): 3.11 µM
TGI (A549 NSCLC): > 100 µM
GI50 (DU-145 prostate): 3.72 µM
TGI (DU-145 prostate): > 100 µM
GI50 (SF-268 CNS): 4.8 µM
TGI (SF-268 CNS): > 100 µM
GI50 (HS 578T breast): 6.03 µM
TGI (HS 578T breast): 84.2 µM
GI50 (MCF7 breast): 2.45 µM
TGI (MCF7 breast): > 100 µM
GI50 (RPMI-8226 leukemia): 1.68 µM
TGI (RPMI-8226 leukemia): > 100 µM
GI50 (SK-MEL-5 melanoma): 3.41 µM
TGI (SK-MEL-5 melanoma): 26.3 µM
GI50 (HOP-92 NSCLC): 2.15 µM
TGI (HOP-92 NSCLC): 8.99 µM
GI50 (CCRF-CEM leukemia): 3.13 µM
TGI (CCRF-CEM leukemia): > 100 µM
GI50 (SW-620 colon): 4.31 µM
TGI (SW-620 colon): > 100 µM
GI50 (NCI-H226 lung): 3.48 µM
TGI (NCI-H226 lung): > 100 µM
GI50 (UACC-62 melanoma): 3.15 µM
TGI (UACC-62 melanoma): 52.3 µM
GI50 (SR leukemia): 1.73 µM
TGI (SR leukemia): > 100 µM
GI50 (BT-549 breast): 3.36 µM
TGI (BT-549 breast): 15.5 µM
GI50 (TK-10 renal): 16.6 µM
TGI (TK-10 renal): > 100 µM
